Results as given in ChEMBL document CHEMBL1201862, “PubChem BioAssay data set” (2004).
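Briefly, cells in 96-well plates were exposed to five compound concentrations for 48 h, and endpoints were estimated by linear interpolation. The concentration for 50% growth inhibition is given as GI50.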 Calls of active or inactive are those of the source. No stated cut-off is given here; in the data, active = GI50 up to about 1.1 µM and inactive = higher.

Experiments:
Test in all cases: growth of human tumour cells (NCI), 48 h
U-251 = test system: U-251
SK-MEL-5 = test system: SK-MEL-5
NCI/ADR-RES = test system: NCI/ADR-RES
SK-OV-3 = test system: SK-OV-3
OVCAR-4 = test system: OVCAR-4
NCI-H460 = test system: NCI-H460
SK-MEL-2 = test system: SK-MEL-2
SNB-75 = test system: SNB-75
RPMI-8226 = test system: RPMI-8226
OVCAR-5 = test system: OVCAR-5
UO-31 = test system: UO-31
SW-620 = test system: SW-620
K562 = test system: K562
MDA-N = test system: MDA-N
PC-3 = test system: PC-3
SF-539 = test system: SF-539
MDA-MB-231 = test system: MDA-MB-231
SF-295 = test system: SF-295
Hs-578T = test system: Hs-578T
HCT-116 = test system: HCT-116

SMILES | GI50 (U-251) | GI50 (SK-MEL-5) | GI50 (NCI/ADR-RES) | GI50 (SK-OV-3) | GI50 (OVCAR-4) | GI50 (NCI-H460) | GI50 (SK-MEL-2) | GI50 (SNB-75) | GI50 (RPMI-8226) | GI50 (OVCAR-5) | GI50 (UO-31) | GI50 (SW-620) | GI50 (K562) | GI50 (MDA-N) | GI50 (PC-3) | GI50 (SF-539) | GI50 (MDA-MB-231) | GI50 (SF-295) | GI50 (Hs-578T) | GI50 (HCT-116)
O=C1c2ccccc2-c2ccc(N(Cc3ccc(Br)cc3)Cc3ccc(Br)cc3)cc21 | > 100 µM (inactive) | > 100 µM (inactive) | > 100 µM (inactive) | > 100 µM (inactive) | > 100 µM (inactive) | 9.82 µM (inactive) | > 100 µM (inactive) | > 100 µM (inactive) | > 100 µM (inactive) | > 100 µM (inactive) | > 100 µM (inactive) | > 100 µM (inactive) | > 100 µM (inactive) | > 100 µM (inactive) | > 100 µM (inactive) | > 100 µM (inactive) | > 100 µM (inactive) | > 100 µM (inactive) | > 100 µM (inactive) | > 100 µM (inactive)
Oc1ccc(Cn2c(-c3ccc(O)cc3)nc3ccccc32)cc1 | > 100 µM (inactive) | > 100 µM (inactive) | > 100 µM (inactive) | > 100 µM (inactive) | > 100 µM (inactive) | > 100 µM (inactive) | > 100 µM (inactive) | > 100 µM (inactive) | > 100 µM (inactive) | > 100 µM (inactive) | > 100 µM (inactive) | > 100 µM (inactive) | > 100 µM (inactive) | > 100 µM (inactive) | > 100 µM (inactive) | > 100 µM (inactive) | > 100 µM (inactive) | > 100 µM (inactive) | > 100 µM (inactive) | > 100 µM (inactive)
CC1OC(OC2C(O)COC(OC3C(C)OC(OC4C(OC(=O)[C@]56CCC(C)(C)C[C@@H]5C5=CCC7[C@@]8(C)C[C@H](O)[C@H](OC9OC(CO)C(O)C(O)C9O)[C@@](C)(CO)[C@@H]8CC[C@@]7(C)[C@]5(C)CC6)OCC(O)C4O)C(O)C3OC3OCC(O)(CO)C3O)C2O)C(O)C(O)C1O (stereo not given in full) | 16.3 µM (inactive) | 13.3 µM (inactive) | 18.8 µM (inactive) | 17.7 µM (inactive) | 15.7 µM (inactive) | 18.7 µM (inactive) | 13.8 µM (inactive) | 21 µM (inactive) | 29.2 µM (inactive) | 8.93 µM (inactive) | 3.36 µM (inactive) | 11.3 µM (inactive) | 28.5 µM (inactive) | 12.6 µM (inactive) | 11.9 µM (inactive) | 20.8 µM (inactive) | 12.6 µM (inactive) | 13.6 µM (inactive) | 7.48 µM (inactive) | 13.9 µM (inactive)
C=C1C(=O)O[C@H]2C/C(C)=C/CC[C@@]3(C)O[C@](C)(CC[C@@H]3I)[C@@H](I)C[C@@H]12 | 4.49 µM (inactive) | 3.32 µM (inactive) | 1.44 µM (inactive) | 7.24 µM (inactive) | 6.14 µM (inactive) | 6.38 µM (inactive) | 9.02 µM (inactive) | 6.03 µM (inactive) | 0.959 µM (active) | 10.2 µM (inactive) | 5.66 µM (inactive) | 3.81 µM (inactive) | 1.95 µM (inactive) | 2.49 µM (inactive) | 4.91 µM (inactive) | 6.4 µM (inactive) | 6.75 µM (inactive) | 6.84 µM (inactive) | 8.49 µM (inactive) | 2.92 µM (inactive)
